Among the data in US6713476B2, “Substituted cycloalkyls as inhibitors of a beta protein production” (Dupont Pharmaceuticals Company, priority 2000, dated 2004) are melting point values, retold here.

Regarding `CN1C(=O)[C@@H](NC(=O)C2(CNC3CCCCC3)CCCC2)N=C(c2ccccc2)c2ccccc21`, the melting point (in general, the temperature of the solid-liquid transition) lay in the range of 82 to 86 °C.
